Here are results for 23 compounds from patent US9682969B2, “Phthalazinone compounds and methods for the treatment of cystic fibrosis” (FLATLEY DISCOVERY LAB, LLC, priority 2013, dated 2017).

Chain of human F508del CFTR (P13569 other isoform, or with tags, fused parts or gaps del F508-F508): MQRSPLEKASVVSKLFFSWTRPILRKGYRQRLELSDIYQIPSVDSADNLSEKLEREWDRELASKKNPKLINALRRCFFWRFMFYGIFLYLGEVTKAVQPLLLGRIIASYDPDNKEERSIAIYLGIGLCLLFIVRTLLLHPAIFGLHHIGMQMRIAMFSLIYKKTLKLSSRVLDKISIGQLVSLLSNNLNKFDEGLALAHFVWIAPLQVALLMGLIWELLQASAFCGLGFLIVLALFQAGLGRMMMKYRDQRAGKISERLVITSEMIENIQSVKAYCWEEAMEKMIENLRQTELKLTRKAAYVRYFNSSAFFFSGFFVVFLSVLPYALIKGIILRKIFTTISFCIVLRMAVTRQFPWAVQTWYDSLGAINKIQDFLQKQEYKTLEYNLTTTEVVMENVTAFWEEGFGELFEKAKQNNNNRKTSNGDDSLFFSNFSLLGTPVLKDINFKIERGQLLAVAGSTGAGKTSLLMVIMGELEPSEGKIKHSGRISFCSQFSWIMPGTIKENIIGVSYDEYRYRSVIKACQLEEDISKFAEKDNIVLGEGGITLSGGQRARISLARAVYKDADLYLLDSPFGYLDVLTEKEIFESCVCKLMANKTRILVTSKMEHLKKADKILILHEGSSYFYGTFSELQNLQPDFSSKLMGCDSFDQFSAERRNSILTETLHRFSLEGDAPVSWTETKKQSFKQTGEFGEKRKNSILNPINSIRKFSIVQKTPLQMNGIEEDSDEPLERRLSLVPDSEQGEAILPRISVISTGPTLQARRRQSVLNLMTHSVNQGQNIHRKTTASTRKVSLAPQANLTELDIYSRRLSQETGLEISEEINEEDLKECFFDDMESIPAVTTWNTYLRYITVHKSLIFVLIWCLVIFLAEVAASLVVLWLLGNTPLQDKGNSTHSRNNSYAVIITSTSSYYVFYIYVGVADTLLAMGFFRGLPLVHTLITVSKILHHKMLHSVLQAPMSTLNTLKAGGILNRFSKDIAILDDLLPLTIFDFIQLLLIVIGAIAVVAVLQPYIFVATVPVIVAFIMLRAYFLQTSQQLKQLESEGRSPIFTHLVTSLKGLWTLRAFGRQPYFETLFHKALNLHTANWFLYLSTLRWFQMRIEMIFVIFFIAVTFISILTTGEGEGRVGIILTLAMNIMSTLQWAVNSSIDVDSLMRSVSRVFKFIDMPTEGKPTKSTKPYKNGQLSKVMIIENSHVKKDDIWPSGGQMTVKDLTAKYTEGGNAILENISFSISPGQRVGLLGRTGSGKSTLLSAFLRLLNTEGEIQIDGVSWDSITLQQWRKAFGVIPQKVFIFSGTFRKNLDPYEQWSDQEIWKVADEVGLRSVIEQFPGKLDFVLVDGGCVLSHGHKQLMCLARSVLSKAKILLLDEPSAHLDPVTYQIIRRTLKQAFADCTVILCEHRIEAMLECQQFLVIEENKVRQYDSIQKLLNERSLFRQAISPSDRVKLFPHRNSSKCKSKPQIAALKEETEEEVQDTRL

The target of the assay is human F508del CFTR (Homo sapiens (Human), UniProt P13569, DEL508-508). As to the kind of experiment: CFTR-YFP High Throughput Assay (YFP flux assay, FRT cells). The assay is classed as cell-based. Conditions: FRT cells expressing human F508del CFTR and YFP. How it is done:
This protocol is designed to selectively screen small molecule compounds for F508del CFTR corrector activities in the YFP (yellow fluorescent protein) flux assay. In this protocol, the cells are incubated with testing compounds for 24 hours, washed with PBS, stimulated with forskolin and a standard potentiator, and fluorescence in each plate well is measured kinetically read on a 384-well plate reader, such as the Hamamatsu FDSS-6000.
YFP fluorescence intensity values are acquired at high speed before and after iodide buffer is injected to the assay cells. Iodide enters the cells via active CFTR channels in the plasma membrane, and quenches the YFP fluorescence. The rate of fluorescence quenching is proportionate to the total CFTR activity in the cell membrane. F508del CFTR correctors increase the number of CFTR molecules in the testing cell plasma membrane, and thereby accelerate YFP quenching.
This method was initially developed for bench top plate readers (Galietta, J, Jayaraman, S and Verkman, A S. Cell-based assay for high-throughput quantitative screening of CFTR chloride transport agonists. Am. J. Physiol. Cell Physiol. (2001), 281: C173), and was adapted to the HTS format (Sui J, Cotard S, Andersen J, Zhu P, Staunton J, Lee M, Lin S. Optimization of a Yellow fluorescent protein-based iodide influx high-throughput screening assay for cystic fibrosis transmembrane conductance regulator (CFTR) modulators. Assay Drug Dev Technol. (2010), 8: 656-668).
Fisher Rat Thyroid (FRT) cells stably expressing both human F508del CFTR and a halide-sensitive yellow fluorescent protein (YFP-H148Q/I152L 25,22) (Galietta et al. Am. J. Physiol Cell Physiol 281(5), C1734, 2001) were cultured on plastic surface in Coon's modified Ham's F12 medium supplemented with FBS 10%, L-glutamine 2 mM, penicillin 100 U/ml, and streptomycin […]. G418 (0.75-1.0 mg/ml) and zeocin (3.2 ug/ml) were used for selection of FRT cells expressing F508del CFTR and YFP. For primary screening, FRT cells were plated into 384-well black wall, transparent bottom microtiter plates (Costar; Corning Inc.) at a cell density of 20,000-40,000 per well. Test compound was applied to the cells at varying concentrations ranging from 2 nM-40 μM in either a 2-fold or 3-fold dilution series. Cells were incubated in a cell culture incubator at 37° C. with 5% CO2 for 24-26 h. Assay plates were washed with DPBS media (Thermo, cat# SH30028.02) to remove unbound cells and compound. Stimulation media (25 μL) containing 20 μM Forskolin & 30 μM P3 [6-(Ethyl-phenyl-sulfonyl)-4-oxo-1,4-dihydro-quinoline-3-carboxylic acid 2-methoxy-benzylamide] in Hams F-12 coon's modified media was added to the plate wells and incubated at room temperature for 60-120 min. 25 μL of HEPES-PBS-I buffer (10 mM HEPES, 1 mM MgCl2, 3 mM KCl, 1 mM CaCl2, 150 mM NaI) was then added and fluorescence quench curves (Excitation 500 nm/Emission 540 nm; exposure 136 ms) were immediately recorded on an FDSS-6000 plate reader (Hamamatsu). Quench rates were derived from least squares fitting of the data as described by Sui et al (2010).
This protocol is designed to selectively screen small molecule compounds for F508del CFTR potentiator activities in the YFP (yellow fluorescent protein) flux assay. Such compounds act acutely to stimulate CFTR already expressed on the membrane surface. In this protocol, the cells are incubated at 27° C. for 24 hours to homogeneously boost F508del CFTR expression in the cell membrane (low temperature correction), washed with PBS, treated with test compound, and CFTR activity is stimulated with forskolin for 1-2 hr. Measurement of ion flux is initiated by addition of iodide-containing buffer, and YFP quenching is kinetically recorded using a 384-well plate reader, such as the Hamamatsu FDSS-6000.
YFP fluorescence intensity values are acquired at high speed over a 1 min time course before and after iodide buffer is injected to the assay cells. […]
As for `CCOc1ccc2c(-c3cccc(F)c3)nn(CC(=O)N(c3ccc4nc(C)oc4c3)C3CC3)c(=O)c2c1` [Example 21, N-cyclopropyl-2-(7-ethoxy-4-(3-fluorophenyl)-1-oxophthalazin-2(1H)-yl)-N-(2-methylbenzo[d]oxazol-6-yl)acetamide], the 50% effective concentration (EC50) (usually the concentration giving half of the maximal effect) was under 10 µM.

For `[2H]C([2H])([2H])N(C(=O)Cn1nc(-c2cccc(Cl)c2)c2ccc(OCC3CC3)cc2c1=O)c1ccc2nc(C)oc2c1` [Example 23, 2-(4-(3-chlorophenyl)-7-(cyclopropylmethoxy)-1-oxophthalazin-2(1H)-yl)-N-(methyl-d3)-N-(2-methylbenzo[d]oxazol-6-yl)acetamide], the EC50 is under 10 µM.

On to `[2H]C([2H])(C)N(C(=O)Cn1nc(-c2cccc(Cl)c2)c2ccc(OC)cc2c1=O)c1ccc2nc(C)oc2c1` [Example 7, 2-(4-(3-chlorophenyl)-7-methoxy-1-oxophthalazin-2(1H)-yl)-N-(ethyl-1,1-d2)-N-(2-methylbenzo[d]oxazol-6-yl)acetamide], for which the EC50 is under 10 µM.

Turning to `Cc1nc2ccc(N(C)C(=O)Cn3nc(-c4cccc(Cl)c4)c4ccc(OCC5CC5)cc4c3=O)cc2o1` [Example 24, 2-(4-(3-chlorophenyl)-7-(cyclopropylmethoxy)-1-oxophthalazin-2(1H)-yl)-N-methyl-N-(2-methylbenzo[d]oxazol-6-yl)acetamide], the EC50 is under 10 µM.

Regarding `[2H]C([2H])([2H])N(C(=O)Cn1nc(-c2cccc(Cl)c2)c2ccc(OC(C)C)cc2c1=O)c1ccc2nc(C)oc2c1` [Example 20, 2-(4-(3-chlorophenyl)-7-isopropoxy-1-oxophthalazin-2(1H)-yl)-N-(methyl-d3)-N-(2-methylbenzo[d]oxazol-6-yl)acetamide], the 50% effective concentration (EC50) is under 10 µM.

On to `CCN(C(=O)Cn1nc(-c2cccc(F)c2)c2ccc(OC)cc2c1=O)c1ccc2nc(C)oc2c1` [Example 8, N-ethyl-2-(4-(3-fluorophenyl)-7-methoxy-1-oxophthalazin-2(1H)-yl)-N-(2-methylbenzo[d]oxazol-6-yl)acetamide], for which the EC50 is under 10 µM.

On to `CCN(C(=O)Cn1nc(-c2cccc(Cl)c2)c2ccc(OC)cc2c1=O)c1ccc2nc(C)oc2c1` [Example 9, 2-(4-(3-chlorophenyl)-7-methoxy-1-oxophthalazin-2(1H)-yl)-N-ethyl-N-(2-methylbenzo[d]oxazol-6-yl)acetamide], for which the EC50 was under 10 µM.

For the compound `COc1cc2c(=O)n(CC(=O)N(C)c3ccc4nc(C)oc4c3)nc(-c3cccc(Cl)c3)c2cc1Cl` [Example 11, 2-(6-chloro-4-(3-chlorophenyl)-7-methoxy-1-oxophthalazin-2(1H)-yl)-N-methyl-N-(2-methylbenzo[d]oxazol-6-yl)acetamide], the EC50 was under 10 µM.

On to `Cc1nc2ccc(N(C(=O)Cn3nc(-c4cccc(F)c4)c4ccc(O)cc4c3=O)C3CC3)cc2o1` [Example 14, N-cyclopropyl-2-(4-(3-fluorophenyl)-7-hydroxy-1-oxophthalazin-2(1H)-yl)-N-(2-methylbenzo[d]oxazol-6-yl)acetamide], for which the EC50 is under 10 µM.

Take `COc1ccc2c(-c3cccc(Cl)c3)nn(CC(=O)N(c3ccc4nc(C)oc4c3)C3CC3)c(=O)c2c1` [Example 5, 2-(4-(3-chlorophenyl)-7-methoxy-1-oxophthalazin-2(1H)-yl)-N-cyclopropyl-N-(2-methylbenzo[d]oxazol-6-yl)acetamide]: the EC50 is under 10 µM.

Take `[2H]C([2H])([2H])N(C(=O)Cn1nc(-c2cccc(F)c2)c2ccc(OCC)cc2c1=O)c1ccc2nc(C)oc2c1` [Example 22, 2-(7-ethoxy-4-(3-fluorophenyl)-1-oxophthalazin-2(1H)-yl)-N-(methyl-d3)-N-(2-methylbenzo[d]oxazol-6-yl)acetamide]: the EC50 is under 10 µM.

For `Cc1nc2ccc(N(C)C(=O)Cn3nc(-c4cccc(F)c4)c4ccc(OC5CCOCC5)cc4c3=O)cc2o1` [Example 27, 2-(4-(3-fluorophenyl)-1-oxo-7-((tetrahydro-2H-pyran-4-yl)oxy)phthalazin-2(1H)-yl)-N-methyl-N-(2-methylbenzo[d]oxazol-6-yl)acetamide], the EC50 was under 10 µM.

As for `CCOc1cc2c(=O)n(CC(=O)N(C)c3ccc4nc(C)oc4c3)nc(-c3cccc(F)c3)c2cc1Cl` [Example 30, 2-(6-chloro-7-ethoxy-4-(3-fluorophenyl)-1-oxophthalazin-2(1H)-yl)-N-methyl-N-(2-methylbenzo[d]oxazol-6-yl)acetamide], the EC50 is under 10 µM.

For the compound `Cc1nc2ccc(N(C)C(=O)Cn3nc(-c4cccc(F)c4)c4ccccc4c3=O)cc2o1` [Example 2, 2-(4-(3-fluorophenyl)-1-oxophthalazin-2(1H)-yl)-N-methyl-N-(2-methylbenzo[d]oxazol-6-yl)acetamide], the EC50 was under 10 µM.

As for `Cc1nc2ccc(N(C)C(=O)Cn3nc(-c4cccc(F)c4)c4ccc(O)cc4c3=O)cc2o1` [Example 13, 2-(4-(3-fluorophenyl)-7-hydroxy-1-oxophthalazin-2(1H)-yl)-N-methyl-N-(2-methylbenzo[d]oxazol-6-yl)acetamide], the EC50 was under 10 µM.

As to `Cc1nc2ccc(N(C)C(=O)Cn3nc(-c4cccc(Cl)c4)c4ccc(OC(C)C)cc4c3=O)cc2o1` [Example 25, 2-(4-(3-chlorophenyl)-7-isopropoxy-1-oxophthalazin-2(1H)-yl)-N-methyl-N-(2-methylbenzo[d]oxazol-6-yl)acetamide], the EC50 is under 10 µM.

Consider `[2H]C([2H])([2H])N(C(=O)Cn1nc(-c2cccc(Cl)c2)c2ccc(OC)cc2c1=O)c1ccc2nc(C)oc2c1` [Example 6, 2-(4-(3-chlorophenyl)-7-methoxy-1-oxophthalazin-2(1H)-yl)-N-(methyl-d3)-N-(2-methylbenzo[d]oxazol-6-yl)acetamide], for which the EC50 was under 10 µM.

In the case of `Cc1nc2ccc(N(C)C(=O)Cn3nc(-c4cccc(Cl)c4)c4ccc(OC5CCCCC5)cc4c3=O)cc2o1` [Example 26, 2-(4-(3-chlorophenyl)-7-(cyclohexyloxy)-1-oxophthalazin-2(1H)-yl)-N-methyl-N-(2-methylbenzo[d]oxazol-6-yl)acetamide], the EC50 is under 10 µM.

Regarding `COc1ccc2c(-c3cccc(F)c3)nn(CC(=O)N(C)c3ccc4nc(C)oc4c3)c(=O)c2c1` [Example 3, 2-(4-(3-fluorophenyl)-7-methoxy-1-oxophthalazin-2(1H)-yl)-N-methyl-N-(2-methylbenzo[d]oxazol-6-yl)acetamide], the EC50 was under 10 µM.

Take `Cc1nc2ccc(N(C)C(=O)Cn3nc(-c4cccc(Cl)c4)c4ccc(OC5CCOCC5)cc4c3=O)cc2o1` [Example 29, 2-(4-(3-chlorophenyl)-1-oxo-7-((tetrahydro-2H-pyran-4-yl)oxy)phthalazin-2(1H)-yl)-N-methyl-N-(2-methylbenzo[d]oxazol-6-yl)acetamide]: the EC50 was under 10 µM.

For the compound `CCOc1ccc2c(-c3cccc(Cl)c3)nn(CC(=O)N(C)c3ccc4nc(C)oc4c3)c(=O)c2c1` [Example 19, 2-(4-(3-chlorophenyl)-7-ethoxy-1-oxophthalazin-2(1H)-yl)-N-methyl-N-(2-methylbenzo[d]oxazol-6-yl)acetamide], the EC50 was under 10 µM.

With `CCOc1ccc2c(-c3cccc(Cl)c3)nn(CC(=O)N(c3ccc4nc(C)oc4c3)C3CC3)c(=O)c2c1` [Example 18, 2-(4-(3-chlorophenyl)-7-ethoxy-1-oxophthalazin-2(1H)-yl)-N-cyclopropyl-N-(2-methylbenzo[d]oxazol-6-yl)acetamide], the 50% effective concentration (EC50) was under 10 µM.

Regarding `CCOc1ccc2c(-c3cccc(F)c3)nn(CC(=O)N(C)c3ccc4nc(C)oc4c3)c(=O)c2c1` [Example 17, 2-(7-ethoxy-4-(3-fluorophenyl)-1-oxophthalazin-2(1H)-yl)-N-methyl-N-(2-methylbenzo[d]oxazol-6-yl)acetamide], the EC50 was under 10 µM.
